Reference: PubChem BioAssay AID248 (DTP/NCI, 2004)
Several values for one entry are separate records, joined by “and”; a condition that tells them apart may be missing. Identical values can stand only once. Inconclusive results and toxic doses are left out.

Test system: L1210 leukemia ip in BDF1 mice, survival T/C
Assay: NCI In Vivo Anticancer Drug Screen. Data for tumor model L1210 Leukemia (intraperitoneal) in B6D2F1 (BDF1) mice
Conditions: endpoint: mean survival time, higher = longer survival
Summary of the method: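 Tumor cells were implanted, animals were treated, and survival was followed. The result divides the treated measurement by the vehicle-control measurement.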

[1] = dose: 100.0 mg/kg/injection, schedule: Q01DX009 (ip), vehicle: Klucel (hydroxypropylcellulose) (HPC)
[2] = dose: 200.0 mg/kg/injection, schedule: Q01DX009 (ip), vehicle: Klucel (hydroxypropylcellulose) (HPC)
[3] = dose: 100.0 mg/kg/injection, schedule: Q04DX003 (ip), vehicle: Klucel (hydroxypropylcellulose) (HPC)
[4] = dose: 200.0 mg/kg/injection, schedule: Q04DX003 (ip), vehicle: Klucel (hydroxypropylcellulose) (HPC)
[5] = dose: 400.0 mg/kg/injection, schedule: Q04DX003 (ip), vehicle: Klucel (hydroxypropylcellulose) (HPC)
[6] = dose: 100.0 mg/kg/injection, schedule: Q01DX001 (ip), vehicle: saline
[7] = dose: 200.0 mg/kg/injection, schedule: Q01DX001 (ip), vehicle: saline
[8] = dose: 400.0 mg/kg/injection, schedule: Q01DX001 (ip), vehicle: saline
[9] = dose: 100.0 mg/kg/injection, schedule: Q01DX001 (ip), vehicle: carboxymethylcellulose (CMC)
[10] = dose: 200.0 mg/kg/injection, schedule: Q01DX001 (ip), vehicle: carboxymethylcellulose (CMC)
[11] = dose: 400.0 mg/kg/injection, schedule: Q01DX001 (ip), vehicle: carboxymethylcellulose (CMC)
[12] = dose: 100.0 mg/kg/injection, schedule: Q04DX003 (ip), vehicle: saline with Tween-80
[13] = dose: 200.0 mg/kg/injection, schedule: Q04DX003 (ip), vehicle: saline with Tween-80
[14] = dose: 400.0 mg/kg/injection, schedule: Q04DX003 (ip), vehicle: saline with Tween-80
[15] = dose: 100.0 mg/kg/injection, schedule: Q04DX003 (ip), vehicle: saline
[16] = dose: 200.0 mg/kg/injection, schedule: Q04DX003 (ip), vehicle: saline
[17] = dose: 400.0 mg/kg/injection, schedule: Q04DX003 (ip), vehicle: saline
[18] = dose: 400.0 mg/kg/injection, schedule: Q01DX009 (ip), vehicle: Klucel (hydroxypropylcellulose) (HPC)

## BrCC1(c2ccccc2)OCCO1
dose: 100.0 mg/kg/injection, schedule: Q01DX001 (ip), vehicle: Klucel (hydroxypropylcellulose) (HPC)
  T/C: 100 % of control
[1]
  T/C: 89 % of control
dose: 200.0 mg/kg/injection, schedule: Q01DX001 (ip), vehicle: Klucel (hydroxypropylcellulose) (HPC)
  T/C: 92 % of control
[2]
  T/C: 89 % of control
dose: 400.0 mg/kg/injection, schedule: Q01DX001 (ip), vehicle: Klucel (hydroxypropylcellulose) (HPC)
  T/C: 98 % of control

## CCCCC(C#N)C(=O)OCC (configuration not stated)
[3]
  T/C: 97 % of control
[4]
  T/C: 94 % of control
[5]
  T/C: 87 % of control

## CCCCC(CCCC)c1cc[n+](CC(=O)c2ccccc2)cc1
dose: 12.5 mg/kg/injection, schedule: Q01DX001 (ip), vehicle: saline
  T/C: 106 % of control
dose: 50.0 mg/kg/injection, schedule: Q01DX001 (ip), vehicle: saline
  T/C: 97 % of control

## Cc1ccnc(NS(=O)(=O)c2ccc(N=Nc3ccc(N)nc3N)cc2)n1
[6]
  T/C: 100 % of control
[7]
  T/C: 102 % of control
[8]
  T/C: 100 % of control

## CC(C)NC(=O)c1ccc(/C=N/N(C)C)cc1
dose: 25.0 mg/kg/injection, schedule: Q04DX003 (ip), vehicle: Klucel (hydroxypropylcellulose) (HPC)
  T/C: 104 % of control
dose: 50.0 mg/kg/injection, schedule: Q04DX003 (ip), vehicle: Klucel (hydroxypropylcellulose) (HPC)
  T/C: 106 % of control
[3]
  T/C: 95 % of control
[4]
  T/C: 101 % of control

## COC1(OC)CCC2(C)C(CCCC2OS(=O)(=O)c2ccc(C)cc2)C1 (configuration not stated)
[9]
  T/C: 97 % of control
[10]
  T/C: 108 % of control
[11]
  T/C: 97 % of control

## O=C1c2ccccc2C(=O)c2c(Nc3ccccc3)ccc(NCCO)c21
[6]
  T/C: 102 % of control
[7]
  T/C: 100 % of control
[8]
  T/C: 97 % of control

## COc1cc(C)c([N+](=O)[O-])cc1OC
[6]
  T/C: 106 % of control
[7]
  T/C: 97 % of control
[8]
  T/C: 101 % of control

## CCCC(C)C(=O)Nc1cccc(OC(=O)NC(C)C)c1 (configuration not stated)
[12]
  T/C: 89 % of control
[13]
  T/C: 87 % of control
[14]
  T/C: 92 % of control

## COc1ccc2c(c1)C(=O)CCN2
[1]
  T/C: 100 % of control
[3]
  T/C: 102 % of control
[2]
  T/C: 95 % of control
[4]
  T/C: 104 % of control
[5]
  T/C: 93 % of control

## CCN(CC)Cc1cc(Nc2c3ccc([N+](=O)[O-])cc3nc3ccc(OC)cc23)ccc1O
dose: 50.0 mg/kg/injection, schedule: Q01DX009 (ip), vehicle: saline
  T/C: 95 % of control
dose: 100.0 mg/kg/injection, schedule: Q01DX009 (ip), vehicle: saline
  T/C: 98 % of control and 100 % of control
[15]
  T/C: 95 % of control
dose: 200.0 mg/kg/injection, schedule: Q01DX009 (ip), vehicle: saline
  T/C: 95 % of control and 109 % of control
[16]
  T/C: 95 % of control
dose: 400.0 mg/kg/injection, schedule: Q01DX009 (ip), vehicle: saline
  T/C: 97 % of control
[17]
  T/C: 90 % of control

## O=C(O)CCC(NC(=O)c1ccc(Cc2ccc(NC(=O)OCc3ccccc3)cc2)cc1)C(=O)O (configuration not stated)
[1]
  T/C: 96 % of control
[3]
  T/C: 97 % of control
[2]
  T/C: 95 % of control
[4]
  T/C: 94 % of control
[18]
  T/C: 93 % of control
[5]
  T/C: 103 % of control

## Cc1c2c(c(C)c3c1[nH]c1ccccc13)CCN=C2
dose: 50.0 mg/kg/injection, schedule: Q01DX001 (ip), vehicle: carboxymethylcellulose (CMC)
  T/C: 104 % of control
[9]
  T/C: 114 % of control
[10]
  T/C: 104 % of control
[11]
  T/C: 111 % of control

## CCCCNC(C)(C)C(=O)c1cccs1
[15]
  T/C: 102 % of control
[16]
  T/C: 86 % of control

## O=C(O)c1c(F)c(F)c(Oc2c(F)c(F)c(F)c(Oc3c(F)c(F)c(C(=O)O)c(F)c3F)c2F)c(F)c1F
[1]
  T/C: 107 % of control
[3]
  T/C: 100 % of control
[2]
  T/C: 98 % of control
[4]
  T/C: 97 % of control

## Cc1c(CCO)c(=O)n2n1CCCC2
dose: 75.0 mg/kg/injection, schedule: Q01DX001 (ip), vehicle: other
  T/C: 108 % of control
dose: 150.0 mg/kg/injection, schedule: Q01DX001 (ip), vehicle: other
  T/C: 100 % of control

## C=CC(C)(C)C(=C)C
[15]
  T/C: 110 % of control
[16]
  T/C: 108 % of control
[17]
  T/C: 101 % of control

## Nc1nc(=S)c2ncn(CN3CCCCC3)c2[nH]1
dose: 1.3 mg/kg/injection, schedule: Q01DX Z (ip), vehicle: carboxymethylcellulose (CMC)
  T/C: 112 % of control
dose: 2.0 mg/kg/injection, schedule: Q01DX Z (ip), vehicle: carboxymethylcellulose (CMC)
  T/C: 123 % of control
dose: 3.0 mg/kg/injection, schedule: Q01DX Z (ip), vehicle: carboxymethylcellulose (CMC)
  T/C: 154 % of control
dose: 3.0 mg/kg/injection, schedule: Q01DX Z (ip), vehicle: saline
  T/C: 155 % of control
dose: 4.5 mg/kg/injection, schedule: Q01DX Z (ip), vehicle: carboxymethylcellulose (CMC)
  T/C: 151 % of control
dose: 4.5 mg/kg/injection, schedule: Q01DX Z (ip), vehicle: saline
  T/C: 166 % of control
dose: 7.0 mg/kg/injection, schedule: Q01DX Z (ip), vehicle: saline
  T/C: 156 % of control
dose: 10.0 mg/kg/injection, schedule: Q01DX Z (ip), vehicle: saline
  T/C: 156 % of control

## O=NN(CCCl)C(=O)NC(CCC(=O)O)C(=O)O (configuration not stated)
dose: 13.0 mg/kg/injection, schedule: Q01DX001 (ip), vehicle: saline with Tween-80
  T/C: 123 % of control
dose: 67.0 mg/kg/injection, schedule: Q01DX001 (ip), vehicle: saline with Tween-80
  T/C: 200 % of control
dose: 100.0 mg/kg/injection, schedule: Q01DX001 (ip), vehicle: saline with Tween-80
  T/C: 261 % of control
dose: 150.0 mg/kg/injection, schedule: Q01DX001 (ip), vehicle: saline with Tween-80
  T/C: 331 % of control
dose: 224.0 mg/kg/injection, schedule: Q01DX001 (ip), vehicle: saline with Tween-80
  T/C: 331 % of control
dose: 335.0 mg/kg/injection, schedule: Q01DX001 (ip), vehicle: saline with Tween-80
  T/C: 192 % of control

## CC(=O)[C@H]1CC[C@H]2[C@@H]3CCC4=CC(=O)C=C[C@]4(C)[C@H]3C(=O)C[C@]12C
dose: 25.0 mg/kg/injection, schedule: Q01DX015 (sc), vehicle: steriod suspending solution
  T/C: 98 % of control
dose: 50.0 mg/kg/injection, schedule: Q01DX015 (sc), vehicle: steriod suspending solution
  T/C: 100 % of control
dose: 100.0 mg/kg/injection, schedule: Q01DX009 (sc), vehicle: steriod suspending solution
  T/C: 97 % of control
dose: 100.0 mg/kg/injection, schedule: Q01DX015 (sc), vehicle: steriod suspending solution
  T/C: 93 % of control
dose: 100.0 mg/kg/injection, schedule: Q04DX003 (ip), vehicle: steriod suspending solution
  T/C: 98 % of control
dose: 200.0 mg/kg/injection, schedule: Q01DX009 (sc), vehicle: steriod suspending solution
  T/C: 97 % of control
dose: 200.0 mg/kg/injection, schedule: Q01DX015 (sc), vehicle: steriod suspending solution
  T/C: 104 % of control and 107 % of control
dose: 200.0 mg/kg/injection, schedule: Q04DX003 (ip), vehicle: steriod suspending solution
  T/C: 101 % of control
dose: 400.0 mg/kg/injection, schedule: Q01DX009 (sc), vehicle: steriod suspending solution
  T/C: 100 % of control
dose: 400.0 mg/kg/injection, schedule: Q01DX015 (sc), vehicle: steriod suspending solution
  T/C: 104 % of control
dose: 400.0 mg/kg/injection, schedule: Q04DX003 (ip), vehicle: steriod suspending solution
  T/C: 112 % of control
dose: 800.0 mg/kg/injection, schedule: Q01DX015 (sc), vehicle: steriod suspending solution
  T/C: 104 % of control

## Cc1ccc(N=Cc2cc([N+](=O)[O-])ccc2O)cc1
dose: 87.5 mg/kg/injection, schedule: Q04DX003 (ip), vehicle: Klucel (hydroxypropylcellulose) (HPC)
  T/C: 102 % of control
dose: 175.0 mg/kg/injection, schedule: Q04DX003 (ip), vehicle: Klucel (hydroxypropylcellulose) (HPC)
  T/C: 92 % of control
dose: 350.0 mg/kg/injection, schedule: Q04DX003 (ip), vehicle: Klucel (hydroxypropylcellulose) (HPC)
  T/C: 97 % of control

## CCCCCC(Br)C(Br)CC(Br)C(Br)CCCCCCCC(=O)O (configuration not stated)
[1]
  T/C: 95 % of control
[3]
  T/C: 98 % of control
[12]
  T/C: 98 % of control
[2]
  T/C: 90 % of control
[13]
  T/C: 97 % of control
[18]
  T/C: 93 % of control
[5]
  T/C: 93 % of control
[14]
  T/C: 91 % of control

## O=C(O)/C=C\C(=O)Nc1ccc2c(c1)OCO2
[1]
  T/C: 98 % of control
[2]
  T/C: 94 % of control
[18]
  T/C: 91 % of control
